Results from patent publication US20240254135A1, “POLYPHENOL COMPOUNDS” (Epirium Bio Inc., priority 2022, published 2024).

Tested on: PGC-1α
Assay: In vivo PGC-1α expression in liver of LPS-treated mice (ELISA)
Design: species or system C57BL/6 mice
Settings: for PGC-1α level / PGC-1α levels: liver, male C57BL/6 mice, LPS 3 mg/Kg IP + compound 10 mg/kg PO BID, 24 h post LPS; for PGC-1α levels: third set: Control 38327, LPS alone 16860
Description: C57BL/6 mice were procured from Vivo Bio Tech Ltd. Male mice were used for the study within an age range of 7 to 8 weeks. Body weight for these mice ranged from 20 g to 25 g. Animals were housed in a group of 6 in individually ventilated cages with temperature of 22±3° C., a relative humidity of 50 to 60%. The bottom of the cages was layered with sterilized corn cob. Animals were provided with gamma irradiated feed and autoclaved drinking water ad-libitum. The IVCs were maintained at an environment controlled (Centrally Air-Conditioned) room at a temperature of 22±3° C., a relative humidity of 50 to 60%, light intensity of 250-300 lux and a 12 hour light-dark cycle and noise intensity of <85 db.
Method of Preparation: LPS was dosed at 3 mg/kg in a dose volume of 10 ml/kg. For this, 0.3 mg/ml of LPS solution (Micronized suspension) was prepared. Butter paper was placed on analytical balance, tarred and LPS was placed on butter paper and its weight was noted down. LPS was transferred to 15 ml falcon tube. Then required amount of normal saline was added to it to make it 0.3 mg/ml. The solution was vortexed properly for 5 minutes and placed on ice. LPS solution was vortexed every time before aspiration and injection.
LPS was dosed at 3 mg/kg. Each test compound was dosed at 10 mg/kg, 2 hour and 15 min post LPS administration.
0.5% CMC was used as a vehicle with a dose volume of 10 ml/kg. An IP route was used for LPS, and a PO route was used for each test compound. Animals were sacrificed 24 hours post LPS dosing, and plasma were collected. PGC-1α level was measured in liver samples, and other tissues were stored for future analysis. PGC-1α level was checked using ELISA kit—CUSABIO Mouse PPARGCIA ELISA kit.
Protocol: One day before start of the experiment C57BL/6 Mice (Male, 6-7-week-old) were randomized on the basis of their body weight and were divided into groups. All the cages were assigned the respective group name. Animals inside each cage were marked on the base of the tails with permanent marker to distinguish each animal. Mice were fasted overnight. Next day morning animals were dosed with test item. Group 1 (Control) and Group 2 (LPS) Animals were dosed with vehicle (0.5% CMC). Test items were prepared in 0.5% CMC by trituration in mortar and pestle and addition of CMC drop by drop. 2 hour post test item/vehicle dosing animals were administered with LPS through IP route at 3 mg/kg of body weight. Group 1 (Control) animals were administered with saline. 0.25 hour post LPS administration, animals were again dosed with test item/vehicle. Post dosing, animals were returned to their respective cages and kept until termination of the study. No feed was offered to any group. Animals were provided with water. 24 hour post LPS administration, blood was collected from each animal under influence of mild isoflurane anesthesia through retro-orbital technique. Animals were sacrificed by CO2 asphyxiation technique. Post-termination, animals were dissected and vital organs, liver, brain, skeleton muscle were collected in Eppendorf tubes and flash frozen in liquid nitrogen. Serum was collected from whole blood by centrifuging it at 4° C. at 10,000 RPM and for 10 minutes. (Blood was left for 2 hour for coagulation before centrifugation) After completion of the experiment, all collected samples were stored at −80° C. until analysis.
Assay Methods/Protocol: The mortar was chilled with liquid nitrogen and then the small tissue pieces were grinded in the presence of liquid nitrogen to a fine powder. Immediately after grinding, transferred small amount of tissue powder to a 1.5 ml micro centrifuge tube containing 1.0 ml lysis buffer (RIPA buffer+Protease inhibitor). The samples were then incubated on ice for 2 hours. The samples were vortexed every 15 minutes. The samples were then centrifuged at 13000×g for 15 minutes at 2-8° C. After centrifugation the supernatant was removed carefully and pellet was discarded. […]

[1] = as E21, relative to Control = 100, LPS alone 51
[2] = first set: Control 35303, LPS alone 18139
[3] = as E23, relative to Control = 100, LPS alone 66
[4] = as E25, relative to Control = 100, LPS alone 44
[5] = second set: Control 25677, LPS alone 16956

COc1cc(C2Oc3ccccc3CC2O)ccc1F (single isomer, unassigned) [Compound 75b, 2-(4-fluoro-3-methoxyphenyl)chroman-3-ol]
PGC-1α level (%) [1]: 92%
PGC-1α level [2]: 32354 pg/mL

Oc1cc(O)c2c(c1)O[C@H](c1ccc(O)c(O)c1)[C@H](O)C2 [Epicatechin, (+)Epicatechin, reference compound]
PGC-1α level (%) [1]: 90%
PGC-1α level (%) [3]: 122%
PGC-1α level (%) [4]: 71%
PGC-1α level [2]: 31729 pg/mL
PGC-1α level [5]: 31225 pg/mL
PGC-1α levels: 27272 pg/mL

Oc1cc(O)c2c(c1)OC(c1ccccc1)C(O)C2 (single isomer, unassigned) [Compound 78a, 2-phenylchromane-3,5,7-triol]
PGC-1α level (%) [4]: 96%
PGC-1α levels: 36967 pg/mL

Oc1ccc2c(c1)OC(c1ccc(O)c(C(F)(F)F)c1)C(O)C2 (single isomer, unassigned) [Compound 77b, 2-(4-hydroxy-3-(trifluoromethyl)phenyl)chromane-3,7-diol]
PGC-1α level (%) [3]: 148%
PGC-1α level [5]: 37954 pg/mL

Oc1cc(O)c2c(c1)OC(c1ccc(O)c(F)c1)C(O)C2 (single isomer, unassigned) [Compound 76b, 2-(3-fluoro-4-hydroxyphenyl)chromane-3,5,7-triol]
PGC-1α level (%) [3]: 81%
PGC-1α level [5]: 20790 pg/mL
